Measurements taken from patent US8324268B2, “Substituted furancarboxamides, and use thereof” (AiCuris GmbH & Co. KG, priority 2008, dated 2012).

How the values were obtained:
reverse transcriptase = target: T1, reverse transcriptase (Human immunodeficiency virus type 1 group M subtype B, UniProt P03366); assay: Biochemical reverse transcriptase assay (Reverse Transcriptase Assay, colorimetric, Roche); settings: read-out: IC50 (nM) RT assay
T1 construct: negative control (mixture without reverse transcriptase); purchased Roche Diagnostics GmbH, Mannheim, Germany
Method: The “Reverse Transcriptase Assay, colorimetric” (Roche Diagnostics GmbH, Mannheim, Germany) is used in accordance with the manufacturer's information. The test substances are dissolved in DMSO and are used in the test diluted in 5-fold steps (final DMSO concentration 1%). The resulting values of the photometric evaluation (405/492 nm) are less than 0.1 for the negative control (mixture without reverse transcriptase) and are in the region of 1.5 for the positive control (mixture without test substance). The IC50 values of the test substances are determined as the concentration of the test substance dilution at which the measured optical density is 50% of the positive control.

HIV-1LAI = assay: H9 assay with wild-type HIV-1 (HIV-1LAI supernatant infection, AlamarBlue); assay type: cell-based; settings: Human immunodeficiency virus 1, H9 cells, 10% FCS
Method: For the mixture for a 96-well MTP, 3 million PBLs are pelleted, suspended in 1 ml of RPMI 1640 medium/10% FCS and incubated together with a suitable amount of HIV-1LAI (NIH AIDS Research & Reference Reagent Program, Germantown, USA) at 37° C. for 2 hours (pellet infection). Unadsorbed viruses are subsequently washed out with PBS, and the infected cells are pelleted again and suspended in 18 ml of RPMI 1640 medium/10% FCS/interleukin-2 (40 U/ml). 180 μl thereof are pipetted into each well of a white 96-well MTP with 20 μl of test substance in suitable dilution. Alternatively, after preparation of the substance dilutions in the MTP, the HIV is pipetted in together with the cells and is not washed out again (supernatant infection). In order to avoid edge effects, the wells at the edge of the MTP are not used for substance dilutions. The second vertical row of the MTP contains only infected cells (virus control) and the eleventh vertical row only uninfected cells (cell control), in each case in RPMI 1640 medium/10% FCS/interleukin-2 (40 U/ml). The other wells of the MTP contain the compounds of the invention in various concentrations starting from the third vertical row, from which the test substances are diluted in 3-fold steps up to the tenth vertical row 3^7-fold. The test substances are dissolved in DMSO, whereby the final DMSO concentration in the test mixture is 1%. The test mixtures are incubated at 37° C./5% CO2. After 5 and 7 days, 50 μl of cell-free supernatant are removed from each well to determine the amount of p24 present by means of a p24 ELISA (HIV-1 p24^CA Antigen Capture Assay Kit, NCI-Frederick Cancer Research and Development Center, Frederick, USA). From the resulting values of the photometric evaluation (450/620 nm) the EC50 values of the test substances are determined as the concentration at which the amount of p24 is 50% of the untreated infected cells.
Alternatively, H9 cells (ATCC, Wesel, Germany) are employed instead of PBLs for testing the test substances. H9 cells are incubated in RPMI 1640 medium with 2% or 10% FCS as a HIV-ILAI supernatant infection at 37° C./5% CO2, (20 μl of substance dilution and 80 μl of cells/virus per well) in accordance with the pattern described above for 5 days. Subsequently, 10 μl of AlamarBlue® (Invitrogen, Karlsruhe, Germany) are added to each well, and the MTPs are incubated at 37° C. for 3 hours before the fluorimetric evaluation takes place (544/590 nm). The resulting values are about 40 000 for the untreated uninfected cells and about 7000 for the untreated infected cells. In the low concentration range, the EC50 values of the test substances are determined as the concentration at which the fluorescence is 50% of the untreated uninfected cells (in each case subtracting the values of the untreated infected cells). In addition, in the high concentration range, the CC50 values of the test substances are determined as the concentration at which the fluorescence is 50% of the untreated uninfected cells (in each case subtracting the values of the untreated infected cells).

HIV-1NL4-3 K103N-Y181C = assay: Light assay with inhibitor-resistant HI reporter virus in MT4 7F2 cells; assay type: cell-based; settings: Human immunodeficiency virus 1, read-out: EC50 (nM) MT4 7F2 cells HIV-1NL4-3 K103N-Y181C 2% FCS
Method: (§1) For the mixture for a 96-well MTP, 3 million MT4 7F2 cells are pelleted, suspended in 1 ml of RPMI 1640 medium without phenol red (Invitrogen, Karlsruhe, Germany)/10% FCS/10% AIM-V (Invitrogen, Karlsruhe, Germany) and incubated together with a suitable amount of the corresponding HIV-1NL4-3 reporter virus at 37° C. for 2 hours (pellet infection). Unadsorbed viruses are subsequently washed out with PBS, and the infected cells are pelleted again and suspended in 8 ml of RPMI 1640 medium without phenol red/2% or 10% FCS/10% AIM-V. 80 μl thereof are pipetted into each well of a white 96-well MTP with 20 μl of test substance in suitable dilution. To avoid edge effects, the wells on the edge of the MTP are not used for substance dilutions. The second vertical row of the MTP contains only infected cells (virus control) and the eleventh vertical row only uninfected cells (cell control), in each case in RPMI 1640 medium without phenol red/2% or 10% FCS/10% AIM-V. The other wells of the MTP contain the compounds of the invention in various concentrations starting from the third vertical row, from which the test substances are diluted in 3-fold steps up to the tenth vertical row 3^7-fold. The test substances are dissolved in DMSO, whereby the final DMSO concentration in the test mixture is 1%. The test mixtures are incubated at 37° C./5% CO2 for five days and, after the addition of 15 μl of Lu164 substrate (5 mg/ml coelenterazine dissolved in 30 μM glutathione/DMSO, 100 mM NaCl, 1M MES, 100 mM glutathione), evaluated by luminometry. The resulting values are in the region of 1 000 000 RLUs (relative light units) for the virus control and 300 to 400 RLUs for the cell control. The EC50 values of the test substances are determined as the concentration at which the virus replication measured in RLUs is 50% of the untreated infected cells.

HIV-1NL4-3 wt = assay: Light assay with wild-type HI reporter virus in MT4 7F2 cells; assay type: cell-based; settings: Human immunodeficiency virus 1, 2% FCS
Method: as §1

SMILES	IC50 (reverse transcriptase)	EC50 (HIV-1LAI)	EC50 (HIV-1NL4-3 K103N-Y181C)	EC50 (HIV-1NL4-3 wt)
O=C1CN(C(=O)c2cc(-c3cc(F)cc(Cl)c3)c(-c3ccc(F)c(Cl)c3)o2)CN1 [Example 11, 1-{[5-(3-Chloro-4-fluorophenyl)-4-(3-chloro-5-fluorophenyl)furan-2-yl]-carbonyl}imidazolidin-4-one]	370 nM	77 nM	255 nM	20 nM
O=C1CN(C(=O)c2cc(-c3cccc(Cl)c3)c(-c3cccc(Cl)c3)o2)CCN1 [Example 30, 4-{[4,5-Bis(3-chlorophenyl)furan-2-yl]carbonyl}piperazin-2-one]	750 nM	200 nM	650 nM	25 nM
